In patent US6664224B2, “Quaternary ammonium salt and process for the preparation thereof” (priority 2000, dated 2003):

Assays:
Bacillus cereus IFO 3001 = assay: Minimum bactericidal concentration (MBC) against bacteria; assay type: cell-based; conditions: contact 30° C. 30 minutes, culture 37° C. 24 hours
Experimental: (§1) A bacteria solution in the initial stage of logarithmic productive phase which had been adjusted with a nutrient broth according to an ordinary sterilized water dilution method such that the concentration of bacterial suspension reached 10^6 cell/ml was brought into contact with chemical solutions having concentrations which vary stepwise at a temperature of 30° C. for 30 minutes, and then transplanted to a nutrient broth where it was then allowed to stand at a temperature of 37° C. for 24 hours for culture. The nutrient broth was then examined to see if the proliferation of bacteria occurred. Thus, MBC was determined.
(§2) Five kinds of gram-negative bacteria and four kinds of gram-positive bacteria were used as sample bacteria.
(§3) BAMP-6 (Example 12), BAMD-6,8 (Example 13), BAMT-6 (Example 17) and benzalkonium chloride (Comparative Example 1) were determined for MBC value against 5 kinds of gram-negative bacteria and 4 kinds of gram-positive bacteria in the same manner as in Test Example 1.

[1] = tested on: Bacillus subtilis IFO 3134; assay: as above; assay type: cell-based; conditions: contact 30° C. 30 minutes, culture 37° C. 24 hours
Experimental: as §1, §2, §3

[2] = tested on: Escherichia coli K12 OUT 8401; assay: as above; assay type: cell-based; conditions: contact 30° C. 30 minutes, culture 37° C. 24 hours
Experimental: as §1, §2, §3

[3] = tested on: Escherichia coli K12 W 3110; assay: as above; assay type: cell-based; conditions: contact 30° C. 30 minutes, culture 37° C. 24 hours
Experimental: as §1, §2, §3

[4] = tested on: Klebsiella pneumoniae ATCC 13883; assay: as above; assay type: cell-based; conditions: contact 30° C. 30 minutes, culture 37° C. 24 hours
Experimental: as §1, §2, §3

Proteus rettgeri NIT 96 = assay: as above; assay type: cell-based; conditions: contact 30° C. 30 minutes, culture 37° C. 24 hours
Experimental: as §1, §2, §3

[5] = tested on: Pseudomonas aeruginosa ATCC 27583; assay: as above; assay type: cell-based; conditions: contact 30° C. 30 minutes, culture 37° C. 24 hours
Experimental: as §1, §2, §3

[6] = tested on: Staphylococcus aureus IFO 12732; assay: as above; assay type: cell-based; conditions: contact 30° C. 30 minutes, culture 37° C. 24 hours
Experimental: as §1, §2, §3

[7] = tested on: Bacillus substilis ATCC 6633; assay: as above; assay type: cell-based, Bacillus subtilis; conditions: contact 30° C. 30 minutes, culture 37° C. 24 hours
Experimental: as §1, §2, §3

[8] = tested on: Escherichia coli K12 W 3110; assay: Minimum development inhibiting concentration (MIC) against bacteria, broth dilution method; assay type: cell-based; conditions: 37° C. 24 hours
Experimental: A bacteria solution in stationary state which had been adjusted with a nutrient broth according to an ordinary broth dilution method such that the concentration of bacterial suspension reached 10^6 cell/ml was added to chemical solutions having concentrations which vary stepwise where it was then allowed to stand at a temperature of 37° C. for 24 hours for culture. The bacteria solution was then examined to see if the proliferation of bacteria occurred. Thus, MIC was determined.
Escherichia coli K12 W 3110 was used as a sample bacterium. Compounds obtained in Examples 1 to 9 and benzalkonium chloride prepared in Comparative Example 1 were used as test samples.
The compounds obtained in Examples 10 to 19 and benzalkonium chloride were determined for MIC value against Escherichia coli K12 W 3110 in the same manner as in Test Example 3.

[9] = tested on: Escherichia coli K12 W 3110; assay: MIC by agar plate dilution method; assay type: cell-based; conditions: E. coli, 37° C. 24 hours
Experimental: (§4) MIC value was determined by an agar plate dilution method according to the Law of Japanese Society of Chemotherapy. In some detail, a bacteria solution in stationary state which had been adjusted with a nutrient broth such that the concentration of bacterial suspension reached 10^6 cell/ml was added to agar culture media containing chemical solutions having concentrations which vary in two stages where it was then allowed to stand at a temperature of 37° C. for 24 hours for culture. The bacteria solution was then examined to see if the proliferation of bacteria occurred. Thus, MIC was determined.
(§5) The following three kinds of bacteria were used as sample bacteria:
Escherichia coliK12 W 3110 (E. coli);

[10] = tested on: Pseudomonas aeruginosa ATCC27583; assay: MIC by agar plate dilution method; assay type: cell-based; conditions: P. aeruginosa, 37° C. 24 hours
Experimental: as §4, §5
Pseudomonas aeruginosa ATCC27583 (P. auruginosa); and […]

[11] = tested on: Staphylococcus aureus IFO 12732; assay: MIC by agar plate dilution method; assay type: cell-based; conditions: S. aureus, 37° C. 24 hours
Experimental: as §4, §5
Staphylococcus aureus IFO 12732 (S. aureus)

Erythrocyte = assay: Minimum hemolytic activity concentration against erythrocyte; assay type: cell-based; conditions: human erythrocyte, 37° C. 1 hour, O.D.540, 50% hemolysis
Experimental: Human blood was collected. The sample blood was then mixed with the equal amount of alsebar solution (glucose: 2.05 g; NaCl: 0.42 g; sodium citrate: 0.8 g; citric acid: 0.55 g; pH: 6.1). The mixture was then stored at a temperature of 4° C. Shortly before used for experiment, the alsebar stored blood was subjected to centrifugal separation. Thus, the supernatant liquid and the leukocyte layer on the erythrocyte were removed. To the erythrocyte was then added PBS in an amount of […] that of the erythrocyte to obtain a 50% erythrocyte. 10 μl of the 50% erythrocyte was then mixed with 990 μl of each of chemicals which had been diluted with PBS in amounts varying stepwise. The erythrocyte was acted upon by the chemical at a temperature of 37° C. for 1 hour. The mixture was then subjected to centrifugal separation. The supernatant liquid was collected for the measurement of the optical density at 540 nm (O.D.540). Separately, the foregoing procedure was followed except that no chemicals were used to prepare a 0% hemolytic control. The foregoing procedure was followed except that Milliq water was used instead of PBS to prepare a 100% hemolytic control. For the minimum hemolytic activity concentration of chemical, the minimum concentration at which the hemolytic concentration is […] was determined.

P. aeruginosa = assay: Anti-septic power test (USP XX); assay type: cell-based, Pseudomonas aeruginosa; conditions: test sample 0.002 wt %
Experimental: (§6) Solutions prepared according to the formulation set forth in Tables 10 and 11 below were subjected to anti-septic power test according to the method defined in Pharmacopoeia of the United States XX, 873 (1980). The solutions thus tested were then observed for anti-septic power after 1 hour, 4 hours, 24 hours, 7 days, 14 days, 21 days and 28 days. As test microorganisms, E. coli, P. auru. and S. Aureus were used as bacteria and A. niger and C. albicans were used as fungi. 4BAMP-6C and benzalkonium chloride were used as test samples.

S. aureus = assay: Anti-septic power test (USP XX); assay type: cell-based, Staphylococcus aureus; conditions: test sample 0.002 wt %
Experimental: as §6

[12] = Formulation 1 (chondroitin sodium sulfate 1 wt %)

Substance: 1,4-bis(N,N-dihexyl-N-methylammoniomethyl)phenylene dichloride [Example 4BAMP-6C]
- MBC (Bacillus cereus IFO 3001): 4 ppm
- MBC [1]: <2 ppm
- MBC [2]: 8 ppm
- MBC [3]: 16 ppm
- MBC [4]: <2 ppm
- MBC (Proteus rettgeri NIT 96): <2 ppm
- MBC [5]: 16 ppm
- MBC [6]: <2 ppm
- MBC [7]: <2 ppm
- MIC Escherichia coli K12 W 3110 [8]: 2 ppm
- MIC [9]: 8 ppm
- MIC [10]: <2 ppm
- MIC [11]: <2 ppm
- Minimum hemolytic activity concentration Erythrocyte (Erythrocyte): 400 ppm
- time at which the desired anti-septic effect was confirmed (P. aeruginosa; [12]): 1 h
- time at which the desired anti-septic effect was confirmed (P. aeruginosa; Formulation 2 (taurin 1 wt %)): 1 h
- time at which the desired anti-septic effect was confirmed (S. aureus; [12]): 1 h
- time at which the desired anti-septic effect was confirmed (S. aureus; Formulation 2 (taurin 1 wt %)): 1 h

Substance: benzalkonium chloride [reference compound]
- MBC (Bacillus cereus IFO 3001): 4 ppm
- MBC [1]: 4 ppm
- MBC [2]: 8 ppm
- MBC [3]: 16 ppm
- MBC [4]: 8 ppm
- MBC (Proteus rettgeri NIT 96): 16 ppm
- MBC [5]: 32 ppm
- MBC [6]: <2 ppm
- MBC [7]: 4 ppm
- MIC Escherichia coli K12 W 3110 [8]: 8 ppm
- MIC [9]: 32 ppm
- MIC [10]: 8 ppm
- MIC [11]: 16 ppm
- Minimum hemolytic activity concentration Erythrocyte (Erythrocyte): 25 ppm
- time at which the desired anti-septic effect was confirmed (P. aeruginosa; [12]): 24 hrs. hr.
- time at which the desired anti-septic effect was confirmed (P. aeruginosa; Formulation 2 (taurin 1 wt %)): 24 hrs. hr.
- time at which the desired anti-septic effect was confirmed (S. aureus; [12]): 4 hrs. hr.
- time at which the desired anti-septic effect was confirmed (S. aureus; Formulation 2 (taurin 1 wt %)): 4 hrs. hr.
